According to PubChem BioAssay (NCI):
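Each compound was tested at five concentrations against cells in 96-well plates for 48 hours. GI50 marks 50% less growth. TGI marks complete inhibition of growth.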

Assays:
Test in all cases: NCI-60 cell line screen, 48 h
OVCAR-4 ovarian = test system: OVCAR-4 ovarian
SNB-75 CNS = test system: SNB-75 CNS
HT29 colon = test system: HT29 colon
SK-MEL-2 melanoma = test system: SK-MEL-2 melanoma
OVCAR-3 ovarian = test system: OVCAR-3 ovarian
HCT-15 colon = test system: HCT-15 colon
T-47D breast = test system: T-47D breast
U251 CNS = test system: U251 CNS
SF-539 CNS = test system: SF-539 CNS
HS 578T breast = test system: HS 578T breast

| SMILES | GI50 (OVCAR-4 ovarian) [µM] | TGI (OVCAR-4 ovarian) [µM] | GI50 (SNB-75 CNS) [µM] | TGI (SNB-75 CNS) [µM] | GI50 (HT29 colon) [µM] | TGI (HT29 colon) [µM] | GI50 (SK-MEL-2 melanoma) [µM] | TGI (SK-MEL-2 melanoma) [µM] | GI50 (OVCAR-3 ovarian) [µM] | TGI (OVCAR-3 ovarian) [µM] | GI50 (HCT-15 colon) [µM] | TGI (HCT-15 colon) [µM] | GI50 (T-47D breast) [µM] | TGI (T-47D breast) [µM] | GI50 (U251 CNS) [µM] | TGI (U251 CNS) [µM] | GI50 (SF-539 CNS) [µM] | TGI (SF-539 CNS) [µM] | GI50 (HS 578T breast) [µM] | TGI (HS 578T breast) [µM] |
| --- | --- | --- | --- | --- | --- | --- | --- | --- | --- | --- | --- | --- | --- | --- | --- | --- | --- | --- | --- | --- |
| O=C(Nc1ccc(-n2cc(-c3ccncc3)c(-c3ccc(Cl)c(O)c3)n2)cc1)c1ccc(Cl)c(C(F)(F)F)c1 | 3.66 | > 90.4 | 0.362 | 1.9 | 0.838 | 3.05 | 1.61 | 4.69 | 2.03 | 6.24 | 0.444 | 2.58 | 3.03 | > 34.9 | 0.895 | 2.91 | 0.65 | 2.99 | 0.538 |  |
| c1ccc(Oc2cnc3ccccc3n2)cc1 | > 100 | > 100 | 33.8 | > 100 | > 100 | > 100 | > 100 | > 100 | > 100 | > 100 | > 100 | > 100 | 75.5 | > 100 | > 100 | > 100 | 92.3 | > 100 | 30.3 | > 100 |
| Cc1cnc2n(c1=O)Cc1ccccc1CO2 | 22 | 64.1 | 25.3 | > 64 | 26.3 | 96.9 | 0.568 | 2.04 | 16.6 | 34.3 | 17.1 | 33.8 | 6.79 | 29.3 | 15.7 | 29.9 | 24 | 60 | 23.9 | > 100 |
| CC/C(=C(/c1ccc(Cl)cc1)c1ccc(OCCCN(C)C)cc1)c1ccc(OC)cc1 | 5.25 | 11.5 | 6.02 | 12.3 | 1.06 | 2.42 | 8.01 | 15.6 | 3.27 | 10.5 | 1.44 | 5.08 | 3.76 | 12.1 | 1.66 | 5.4 | 4.08 | 11.6 | 7.08 | 16.9 |
| C=CCOc1ccc2c(c1)CC[C@@H]1[C@@H]2CC[C@]2(C)C(=O)/C(=N/O)C[C@@H]12 | 2.17 | 8.6 | 0.335 | 8.39 | 1.81 | 4.68 | 3.08 | 10.4 | 7.06 | 25.9 | 2.05 | 7.06 | 2.64 | > 40.4 | 9.8 | > 51 | 15.8 | > 50.1 | 1.93 | 11.4 |
| COc1ccc(-c2nn(C(=O)c3cc(OC)c(OC)c(OC)c3)c3cc(N)ccc23)cc1 | < 0.0195 | 12.9 | < 0.0122 | 7.76 | < 0.0142 | 1.13 | 2.55 | 27.6 | < 0.01 |  | < 0.01 | 7.21 | 2.17 | 7.58 | < 0.01 | 1.87 | < 0.01 | 1.24 | < 0.0179 | 39 |
| CCc1cc(Cc2cc(CC)cc(C(C)(C)C)c2O)c(O)c(C(C)(C)C)c1 | 3.56 | 12.7 | 3.37 | 14.1 | 2.9 | 11.5 | 2.63 | 7.08 | 2.2 | 5.33 | 3.13 | 11 | 2.59 | 7.87 | 3.13 | 11 | 2.51 | 5.98 | 2.59 | 8.29 |
| COc1cc(-c2nc3cc(Cl)c(Cl)cc3[nH]2)ccc1OCC(=O)N=Nc1c(O)[nH]c2ccccc12 | 0.307 | 0.921 | 1.23 | 2.65 | 0.352 | 4.72 | 1.33 | 3.27 | 0.409 | 1.43 |  | > 56.5 | 0.288 | 1.14 | 0.244 | 0.681 | 1.08 | 2.29 | 1.21 | 4.05 |
| C/C(=N\O)c1ccc(Nc2cc(-c3ccccc3)nc3c(O)cccc23)cc1 | 25.4 | 73.2 | 16.3 | 31.8 | 19.8 | 48.1 | 17.3 | 36.8 | 5.49 | 31.7 | 4.75 | 26.4 | 5.44 | 32.9 | 11.8 | 38.6 | 15.3 | 29.6 | 15.9 | 62.4 |
